Measured values from patent publication US20100003217A1, “Compounds and Pharmaceutical Compositions for the Treatment of Viral Infections” (priority 2008, published 2010).
“And” between values parts separate entries of the source, which are not always exact repeats. Identical values can stand only once.

Legend:
[1] = system: human primary hepatocytes; experiment: Metabolic disposition of [^14C]-Compound 1 and [^14C]-2′-C-methyl guanosine in human primary hepatocytes (incubation medium, cellular extracts, nucleotide levels); type: in vitro ADME
Procedure, shortened: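 Radio-HPLC and liquid scintillation counting quantified metabolites in incubation medium and in 70% methanol cell extracts. Samples came from cultured rat, monkey or human primary hepatocytes exposed at 37° C to 1 or 10 μM [^14C]-compound or [^14C]-2′-C-methyl guanosine, sampled at 1–24 hours. Phosphates were confirmed by phosphatase digestion to the nucleoside.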

[2] = system: monkey primary hepatocytes; experiment: Metabolic disposition of [^14C]-Compound 1 and [^14C]-2′-C-methyl guanosine in monkey primary hepatocytes (incubation medium, cellular extracts, nucleotide levels); type: in vitro ADME, Cynomolgus monkey; details: for AUC (area under the concentration-time curve) of Compound 7 levels: 0-24 h
Procedure, shortened: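 Rat, monkey or human primary hepatocytes on collagen I plates (1.6 million cells/mL) were incubated at 37° C with 1 or 10 μM C-8 [^14C]-labelled compound or 2′-C-methyl guanosine for 1, 4, 8 and 24 hours. Medium and 70% methanol cell extracts were analysed by LSC and radio-HPLC. Nucleotides were identified by alkaline phosphatase treatment and retention-time matching to standards.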

[3] = monkey hepatocytes (Cy234), 10 μM [^14C]-Compound 1, 4 h
[4] = monkey hepatocytes Cy230, 10 μM [^14C]-2′-C-methyl guanosine, 1 h
[5] = monkey hepatocytes Cy230, 10 μM [^14C]-2′-C-methyl guanosine, 8 h
[6] = monkey hepatocytes Cy230, 10 μM [^14C]-2′-C-methyl guanosine, 24 h
[7] = monkey hepatocytes Cy234, 10 μM [^14C]-2′-C-methyl guanosine, 1 h
[8] = monkey hepatocytes Cy234, 10 μM [^14C]-2′-C-methyl guanosine, 4 h
[9] = monkey hepatocytes Cy234, 10 μM [^14C]-2′-C-methyl guanosine, 8 h
[10] = monkey hepatocytes Cy234, 10 μM [^14C]-2′-C-methyl guanosine, 24 h

## C[C@@]1(O)[C@H](O)[C@@H](COP(=O)(O)OP(=O)(O)OP(=O)(O)O)O[C@H]1n1cnc2c(=O)[nH]c(N)nc21 [Compound 7, [(2R)-2-methyl-β-D-ribofuranosyl]guanine 5′-triphosphate]
[1]; human hepatocytes Hu775, 10 μM [^14C]-Compound 1, 0-24 h
  AUC (area under the concentration-time curve) of Compound 7 levels: 9036 pmol * hr/million cells
[1]; human hepatocytes Hu775, 10 μM [^14C]-Compound 1, 1 h
  2′-C-methyl guanosine nucleotide levels in cellular extracts: 54 pmol/million cells and 54.0 pmol/million cells
[1]; human hepatocytes Hu775, 10 μM [^14C]-Compound 1, 4 h
  2′-C-methyl guanosine nucleotide levels in cellular extracts: 216 pmol/million cells
[1]; human hepatocytes Hu775, 10 μM [^14C]-Compound 1, 8 h
  2′-C-methyl guanosine nucleotide levels in cellular extracts: 366 pmol/million cells
[1]; human hepatocytes Hu775, 10 μM [^14C]-Compound 1, 24 h
  2′-C-methyl guanosine nucleotide levels in cellular extracts: 564 pmol/million cells
[1]; human hepatocytes, 1 μM [^14C]-Compound 1
  Compound 7 maximal levels: 60.4 pmol/million cells
[1]; human hepatocytes, 10 μM [^14C]-2′-C-methyl guanosine, at 24 hours
  Maximum Compound 7 levels: 215 pmol/million cells
[1]; human hepatocytes, 10 μM [^14C]-Compound 1, at 24 hours, mean of two donors
  Maximum Compound 7 levels: 296 pmol/million cells
[2]; monkey hepatocytes (Cy230, Cy234), 10 μM [^14C]-Compound 1, 1 h
  metabolites observed in cellular extracts (% of total radioactivity): 63.4% and 34.9%
[2]; monkey hepatocytes (Cy230, Cy234), 10 μM [^14C]-Compound 1, 8 h
  metabolites observed in cellular extracts (% of total radioactivity): 80.9% and 77.6%
[2]; monkey hepatocytes (Cy230, Cy234), 10 μM [^14C]-Compound 1, 24 h
  metabolites observed in cellular extracts (% of total radioactivity): 72.2% and 79.4%
[2]; [3]
  2′-C-methyl guanosine nucleotide levels in cellular extracts: 183 pmol/million cells
  metabolites observed in cellular extracts (% of total radioactivity): 70.3%
[2]; monkey hepatocytes Cy230, 10 μM [^14C]-2′-C-methyl guanosine, 0 h
  2′-C-methyl guanosine nucleotide levels in cellular extracts: 0 pmol/million cells
[2]; monkey hepatocytes Cy230, 10 μM [^14C]-2′-C-methyl guanosine
  AUC (area under the concentration-time curve) of Compound 7 levels: 241 pmol * hr/million cells
[2]; [4]
  2′-C-methyl guanosine nucleotide levels in cellular extracts: 2.87 pmol/million cells
  Major metabolites observed in cellular extracts (% of total radioactivity): 3.63 % of total radioactivity
[2]; [5]
  2′-C-methyl guanosine nucleotide levels in cellular extracts: 14.58 pmol/million cells and 14.6 pmol/million cells
  Major metabolites observed in cellular extracts (% of total radioactivity): 19.9 % of total radioactivity
[2]; [6]
  2′-C-methyl guanosine nucleotide levels in cellular extracts: 6.85 pmol/million cells
  Major metabolites observed in cellular extracts (% of total radioactivity): 26.6 % of total radioactivity
[2]; monkey hepatocytes Cy230, 10 μM [^14C]-Compound 1, 0 h
  2′-C-methyl guanosine nucleotide levels in cellular extracts: 0 pmol/million cells
[2]; monkey hepatocytes Cy230, 10 μM [^14C]-Compound 1
  AUC (area under the concentration-time curve) of Compound 7 levels: 13765 pmol * hr/million cells
[2]; monkey hepatocytes Cy230, 10 μM [^14C]-Compound 1, 1 h
  2′-C-methyl guanosine nucleotide levels in cellular extracts: 180 pmol/million cells
[2]; monkey hepatocytes Cy230, 10 μM [^14C]-Compound 1, 8 h
  2′-C-methyl guanosine nucleotide levels in cellular extracts: 895 pmol/million cells
[2]; monkey hepatocytes Cy230, 10 μM [^14C]-Compound 1, 24 h
  2′-C-methyl guanosine nucleotide levels in cellular extracts: 344 pmol/million cells
[2]; monkey hepatocytes Cy234, 10 μM [^14C]-2′-C-methyl guanosine, 0 h
  2′-C-methyl guanosine nucleotide levels in cellular extracts: 0 pmol/million cells
[2]; monkey hepatocytes Cy234, 10 μM [^14C]-2′-C-methyl guanosine
  AUC (area under the concentration-time curve) of Compound 7 levels: 956 pmol * hr/million cells
[2]; [7]
  2′-C-methyl guanosine nucleotide levels in cellular extracts: 4.00 pmol/million cells
  Major metabolites observed in cellular extracts (% of total radioactivity): 8.70 % of total radioactivity
[2]; [8]
  2′-C-methyl guanosine nucleotide levels in cellular extracts: 29.0 pmol/million cells
  Major metabolites observed in cellular extracts (% of total radioactivity): 35.6 % of total radioactivity
[2]; [9]
  2′-C-methyl guanosine nucleotide levels in cellular extracts: 39.0 pmol/million cells
  Major metabolites observed in cellular extracts (% of total radioactivity): 43.0 % of total radioactivity
[2]; [10]
  2′-C-methyl guanosine nucleotide levels in cellular extracts: 57.0 pmol/million cells
  Major metabolites observed in cellular extracts (% of total radioactivity): 51.8 % of total radioactivity
[2]; monkey hepatocytes Cy234, 10 μM [^14C]-Compound 1, 0 h
  2′-C-methyl guanosine nucleotide levels in cellular extracts: 0 pmol/million cells
[2]; monkey hepatocytes Cy234, 10 μM [^14C]-Compound 1
  AUC (area under the concentration-time curve) of Compound 7 levels: 9861 pmol * hr/million cells
[2]; monkey hepatocytes Cy234, 10 μM [^14C]-Compound 1, 1 h
  2′-C-methyl guanosine nucleotide levels in cellular extracts: 22.0 pmol/million cells
[2]; monkey hepatocytes Cy234, 10 μM [^14C]-Compound 1, 8 h
  2′-C-methyl guanosine nucleotide levels in cellular extracts: 476 pmol/million cells
[2]; monkey hepatocytes Cy234, 10 μM [^14C]-Compound 1, 24 h
  2′-C-methyl guanosine nucleotide levels in cellular extracts: 552 pmol/million cells
[2]; monkey hepatocytes, 10 μM [^14C]-2′-C-methyl guanosine, at 24 hours
  Maximum Compound 7 levels: 32 pmol/million cells
[2]; monkey hepatocytes, 10 μM [^14C]-Compound 1
  Compound 7 AUC0-24h: 11,813 pmol*h/million cells
[2]; monkey hepatocytes, 10 μM [^14C]-Compound 1, from 4-24 hours
  major intracellular metabolite, % of total intracellular radioactivity: > 70%
[2]; monkey hepatocytes, 10 μM [^14C]-Compound 1, at 8 hours in one donor and at 24 hours in the second
  Compound 7 peak levels: 895 pmol/million cells and 552 pmol/million cells
